Laboratory results taken from patent publication US8772002B1, “Method for treatment of microorganisms during propagation, conditioning and fermentation using hops acid extracts and organic acid” (Hercules Incorporated, priority 2013, dated 2014).
Like-named read-outs stand apart in the source and are kept apart here.

Experiments:
Lactobacillus plantarum = assay: Minimal Inhibitory Concentration (MIC), two-fold dilution series in 96 well microplate; assay type: cell-based; settings: for MIC: Lactiplantibacillus plantarum
Protocol: This is the lowest concentration of a substance or substances which can achieve complete inhibition of growth.
In order to determine the Minimal Inhibitory Concentration, a two-fold dilution series of the antimicrobial is constructed with the dilutions being made in growth media. The dilutions are made in a 96 well microplate such that each well has a final volume of 280 μl of media and antimicrobial. […] After the dilution series is constructed the wells receive an inoculum of microbe suspended in growth media such that the final concentration of microbes in the well is i˜5×10^5 cfu/ml. In these examples the test microbe used is Lactobacillus plantarum. The cultures are incubated at 37° C. for 18-24 hours, and the wells scored as positive or negative for growth based on a visual examination for turbid wells, with turbidity being an indicator of growth.
Minimal inhibitory concentrations were determined for both citric acid and hops acid at pH 6 using the protocol described above with Lactobacillus plantarum as the test microbe. Checkerboard synergy plates were constructed as described, the wells inoculated to a final concentration of ˜5×10^5 cfu/ml, incubated for 18-24 hours, and then scored visually for growth/no growth.
Minimal inhibitory concentrations were determined for both benzoic acid and hops acid at pH 6 using the protocol described above with Lactobacillus plantarum as the test microbe. Checkerboard synergy plates were constructed as described, the wells inoculated to a final concentration of ˜5×10^5 cfu/ml, incubated for 18-24 hours, and then scored visually for growth/no growth.

Weisella confusa = settings: cited from earlier work
fermentation = settings: cited from earlier work

**Q.** With `O=C(O)CC(O)(CC(=O)O)C(=O)O` [Citric Acid, citric acid] as the molecule, how does the MIC (Lactobacillus plantarum; pH 6, 37° C., 18-24 hours, complete inhibition of growth, read-out: Citric Acid MIC (QA) used alone) read?
**A.** 100 mg/mL

**Q.** What about the “Citric Acid MIC (QA) used alone” value (Lactobacillus plantarum; pH 6, 37° C., 18-24 hours, complete inhibition of growth) of the same molecule?
**A.** 100000 ppm

**Q.** For `O=C(O)c1ccccc1` [Benzoic Acid, benzoic acid], which MIC (Lactobacillus plantarum; pH 6, read-out: Benzoic Acid MIC (QA) used alone) is on record?
**A.** 100 mg/mL

**Q.** With Virginiamycin as the molecule, how does the “concentration required to inhibit growth of Weisella confusa” value (Weisella confusa) read?
**A.** over 25 mg/L

**Q.** And the “concentration that will suppress fermentation” value (fermentation)?
**A.** over 2 mg/L
